From patent US20230265104A1, “NOVEL HETEROCYCLIC COMPOUNDS” (PRISM BIOLAB CO., LTD., priority 2020, published 2023)

System: PANC-1 (human pancreatic cancer-derived cell line)
Assay: MTS assay on Panc-1 (human pancreas carcinoma cell line)
Format: cell-based
Conditions: 144 h; for inhibition at 10 µM: read-out: Growth inhibition (%) 10 μM; for IC50: PANC-1, MTS method, cell survival 6 days after exposure, 4-parameter logistic fit; for inhibition at 30 µM: read-out: Growth inhibition (%) 30 μM; for inhibition at 0.15625 µM: read-out: Growth inhibition (%) 0.15625 μM; for inhibition at 0.3125 µM: read-out: Growth inhibition (%) 0.3125 μM
Summary of the method: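 Viability measured by MTS 6 days after treating human pancreatic carcinoma PANC-1 cells with compound serially diluted 2-fold in DMSO; absorbance 492–630 nm normalized to solvent control. Triplicate measurements averaged and fitted to a 4-parameter logistic curve.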

Compound `CC(C)C[C@H]1ON(C(=O)/C=C/c2cscn2)[C@H]2CN(C3CCN(C)CC3)C(=O)[C@H](CC(C)C)N2C1=O` [ID-54, (3R,6S,9aS)-3,6-diisobutyl-8-(1-methylpiperidin-4-yl)-1-((E)-3-(thiazol-4-yl)acryloyl)tetrahydropyrazino[2,1-c] [1,2,4]oxadiazine-4,7(3H,6H)-dione] has an inhibition at 10 µM (PANC-1, MTS, 6 days) of 57%.

Work on `CC(C)C[C@H]1ON(C(=O)/C=C/c2nccs2)[C@H]2CN(CCC(N)=O)C(=O)[C@H](CC(C)C)N2C1=O` [ID-17, 3-((3R,6S,9aS)-3,6-diisobutyl-4,7-dioxo-1-((E)-3-(thiazol-2-yl)acryloyl)hexahydropyrazino[2,1-c][1,2,4]oxadiazin-8(1H)-yl)propanamide] yielded an IC50 of 11.4 µM and an inhibition at 30 µM (PANC-1, MTS, 6 days) of 100%.

`CC(C)C[C@H]1ON(C(=O)/C=C/c2ncc(Cl)cn2)[C@H]2CN(C3CCN(C)CC3)C(=O)[C@H](CC(C)C)N2C1=O` [ID-55, (3R,6S,9aS)-1-((E)-3-(5-chloropyrimidin-2-yl)acryloyl)-3,6-diisobutyl-8-(1-methylpiperidin-4-yl)tetrahydropyrazino[2,1-c][1,2,4]oxadiazine-4,7(3H,6H)-dione] showed an IC50 of 0.46 µM and an inhibition at 10 µM (PANC-1, MTS, 6 days) of 99.8%.

With `CC(C)C[C@H]1ON(C(=O)/C=C/c2ccccn2)[C@H]2CN(C3CCN(C)CC3)C(=O)[C@H](Cc3ccccc3)N2C1=O` [ID-66, (3R,6S,9aS)-6-benzyl-3-isobutyl-8-(1-methylpiperidin-4-yl)-1-((E)-3-(pyridin-2-yl)acryloyl)tetrahydropyrazino[2,1-c][1,2,4]oxadiazine-4,7(3H,6H)-dione] the IC50 was 5.2 µM and the inhibition at 10 µM (PANC-1, MTS, 6 days) was 96.7%.

Compound `CC(C)C[C@H]1ON(C(=O)/C=C/c2ccnn2C)[C@H]2CN(C3CCN(C)CC3)C(=O)[C@H](CC(C)C)N2C1=O` [ID-44, (3R,6S,9aS)-3,6-diisobutyl-1-((E)-3-(1-methyl-1H-pyrazol-5-yl)acryloyl)-8-(1-methylpiperidin-4-yl)tetrahydropyrazino[2,1-c][1,2,4]oxadiazine-4,7(3H,6H)-dione] has an inhibition at 10 µM (PANC-1, MTS, 6 days) of 94.7%.

Work on `CC(C)C[C@H]1ON(C(=O)/C=C/c2ccccn2)[C@H]2CN(C3CCN(C4CCOCC4)CC3)C(=O)[C@H](CC(C)C)N2C1=O` [ID-62, (3R,6S,9aS)-3,6-diisobutyl-1-((E)-3-(pyridin-2-yl)acryloyl)-8-(1-(tetrahydro-2H-pyran-4-yl)piperidin-4-yl)tetrahydropyrazino[2,1-c][1,2,4]oxadiazine-4,7(3H,6H)-dione] yielded an IC50 of 3.4 µM.

`CC(C)C[C@H]1ON(C(=O)/C=C/c2nc(C#CCOCCO)cs2)[C@H]2CN(C3CCN(C(C)C)CC3)C(=O)[C@H](CC(C)(C)C)N2C1=O` [ID-97, (3R,6S,9aS)-1-((E)-3-(4-(3-(2-hydroxyethoxy)prop-1-yn-1-yl)thiazol-2-yl)acryloyl)-3-isobutyl-8-(1-isopropylpiperidin-4-yl)-6-neopentyltetrahydropyrazino[2,1-c][1,2,4]oxadiazine-4,7 (3H, 6H)-dione] was tested, and the IC50 was 0.15 µM and the inhibition at 0.15625 µM (PANC-1, MTS, 6 days) was 51%.

With `CC(C)C[C@H]1ON(C(=O)/C=C/c2nc3c(s2)CCCC3)[C@H]2CN(CCC(N)=O)C(=O)[C@H](CC(C)C)N2C1=O` [ID-37, 3-((3R,6S,9aS)-3,6-diisobutyl-4,7-dioxo-1-((E)-3-(4,5,6,7-tetrahydrobenzo[d]thiazol-2-yl)acryloyl)hexahydropyrazino[2,1-c][1,2,4]oxadiazin-8 (1H)-yl)propanamide] the IC50 was 4.7 µM and the inhibition at 10 µM (PANC-1, MTS, 6 days) was 95.8%.

Work on `CC(C)C[C@H]1ON(C(=O)/C=C/c2nc(C#CCN(C)C)cs2)[C@H]2CN([C@H]3CCN(CCCCO)C3)C(=O)[C@H](CC(C)(C)C)N2C1=O` [ID-88, (3R,6S,9aS)-1-((E)-3-(4-(3-(dimethylamino)prop-1-yn-1-yl)thiazol-2-yl)acryloyl)-8-((S)-1-(4-hydroxybutyl)pyrrolidin-3-yl)-3-isobutyl-6-neopentyltetrahydropyrazino[2,1-c][1,2,4]oxadiazine-4,7(3H,6H)-dione] yielded an inhibition at 0.3125 µM (PANC-1, MTS, 6 days) of 38%.

Compound `CNC(=O)CCCC#Cc1csc(/C=C/C(=O)N2O[C@H](CC(C)C)C(=O)N3[C@@H]2CN([C@H]2CCN(CCCCO)C2)C(=O)[C@@H]3CC(C)(C)C)n1` [ID-93, 6-(2-((E)-3-((3R, 6S, 9aS)-8-((S)-1-(4-hydroxybutyl)pyrrolidin-3-yl)-3-isobutyl-6-neopentyl-4,7-dioxohexahydropyrazino[2,1-c][1,2,4]oxadiazin-1(6H)-yl)-3-oxoprop-1-en-1-yl)thiazol-4-yl)—N-methylhex-5-ynamide] has an inhibition at 0.15625 µM (PANC-1, MTS, 6 days) of 37.4%.

In the case of `CN1CCC(N2C[C@@H]3N(C(=O)/C=C/c4nc5ccccc5s4)c4ccc(F)cc4C(=O)N3[C@@H](CCCCN(C)C3CCN(C(=O)OC(C)(C)C)CC3)C2=O)CC1` [ID-59, tert-butyl 4-((4-((4S,11aS)-11-((E)-3-(benzo[d]thiazol-2-yl)acryloyl)-8-fluoro-2-(1-methylpiperidin-4-yl)-3,6-dioxo-1,3,4,6,11,11a-hexahydro-2H-pyrazino[2,1-b]quinazolin-4-yl)butyl) (methyl)amino)piperidine-1-carboxylate], the IC50 is reported as 0.55 µM and the inhibition at 1 µM (PANC-1, MTS, 6 days, 1 μM, read-out: Growth inhibition (%) 1 μM) is reported as 98.8%.

In the case of `CC(C)C[C@H]1ON(C(=O)/C=C\c2ccccc2)[C@H]2CN(C3CCN(C)CC3)C(=O)[C@H](CC(C)C)N2C1=O` [ID-38, (3R,6S,9aS)-3,6-diisobutyl-8-(1-methylpiperidin-4-yl)-1-((Z)-3-phenylacryloyl)tetrahydropyrazino[2,1-c] [1,2,4] oxadiazine-4,7 (3H, 6H)-dione], the IC50 is reported as 8 µM and the inhibition at 10 µM (PANC-1, MTS, 6 days) is reported as 82.6%.

`CC(C)C[C@H]1CN(CCCN(C)C2CCN(C)CC2)C[C@@H]2N(C(=O)/C=C/c3ccccn3)O[C@H](CC(C)C)C(=O)N12` [ID-35, (3R,6S,9aS)-3,6-diisobutyl-8-(3-(methyl(1-methylpiperidin-4-yl)amino)propyl)-1-((E)-3-(pyridin-2-yl)acryloyl)hexahydropyrazino[2,1-c][1,2,4]oxadiazin-4(3H)-one] was tested, and the IC50 was 5 µM and the inhibition at 10 µM (PANC-1, MTS, 6 days) was 99%.

`CC(C)C[C@H]1ON(C(=O)/C=C/c2nc3ccccc3s2)[C@H]2CN(C3CCOCC3)C(=O)[C@H](CC(C)C)N2C1=O` [ID-64, (3R,6S,9aS)-1-((E)-3-(benzo[d]thiazol-2-yl)acryloyl)-3,6-diisobutyl-8-(tetrahydro-2H-pyran-4-yl)tetrahydropyrazino[2,1-c][1,2,4]oxadiazine-4,7(3H,6H)-dione] was tested, and the IC50 was 0.88 µM.

For `CC(C)C[C@H]1ON(C(=O)/C=C/c2nc(C#N)cs2)[C@H]2CN(C3CCN(C)CC3)C(=O)[C@H](CC(C)C)N2C1=O` [ID-3, 2-((E)-3-((3R, 6S, 9aS)-3,6-diisobutyl-8-(1-methylpiperidin-4-yl)-4,7-dioxohexahydropyrazino[2,1-c] [1,2,4]oxadiazin-1(6H)-yl)-3-oxoprop-1-en-1-yl)thiazole-4-carbonitrile], the IC50 was 0.34 µM.

Compound `CC(C)C[C@H]1ON(C(=O)/C=C/c2nc3ccccc3s2)[C@H]2CN(C3CN(CCCCO)C3)C(=O)[C@H](CC(C)(C)C)N2C1=O` [ID-84, (3R,6S,9aS)-1-((E)-3-(benzo[d]thiazol-2-yl)acryloyl)-8-(1-(4-hydroxybutyl)azetidin-3-yl)-3-isobutyl-6-neopentyltetrahydropyrazino[2,1-c][1,2,4]oxadiazine-4,7(3H,6H)-dione] has an IC50 of 0.11 µM and an inhibition at 0.3125 µM (PANC-1, MTS, 6 days) of 88.9%.

With `CC(C)C[C@H]1ON(C(=O)/C=C/c2nn(C)c3ccccc23)[C@H]2CN(CCC(N)=O)C(=O)[C@H](CC(C)C)N2C1=O` [ID-22, 3-((3R,6S,9aS)-3,6-diisobutyl-1-((E)-3-(1-methyl-1H-indazol-3-yl)acryloyl)-4,7-dioxohexahydropyrazino[2,1-c][1,2,4]oxadiazin-8(1H)-yl)propanamide] the IC50 was 15.6 µM and the inhibition at 30 µM (PANC-1, MTS, 6 days) was 95.4%.

For `CC(C)C[C@@H]1C(=O)N2[C@H](CN(C3CCN(C)CC3)C(=O)[C@@H]2Cc2ccccc2)N1C(=O)/C=C/c1nc2ccccc2s1` [ID-86, (2R,5S,8aR)-1-((E)-3-(benzo[d]thiazol-2-yl)acryloyl)-5-benzyl-2-isobutyl-7-(1-methylpiperidin-4-yl)tetrahydroimidazo[1,2-a]pyrazine-3,6(2H,5H)-dione], the inhibition at 1.25 µM (PANC-1, MTS, 6 days, 1.25 μM, read-out: Growth inhibition (%) 1.25 μM) was 50%.

`CC(C)C[C@H]1ON(C(=O)/C=C/c2ccccn2)[C@H]2CN(C3CC4CCC(C3)N4C)C(=O)[C@H](CC(C)C)N2C1=O` (stereo partly drawn) [ID-70, (3R,6S,9aS)-3,6-diisobutyl-8-(8-methyl-8-azabicyclo[3.2.1]octan-3-yl)-1-((E)-3-(pyridin-2-yl)acryloyl)tetrahydropyrazino[2,1-c][1,2,4]oxadiazine-4,7(3H,6H)-dione] gave an IC50 of 2.5 µM.

`CC(C)C[C@H]1ON(C(=O)/C=C/c2nc(C#CCCCO)cs2)[C@H]2CN(C3CCN(C4CC4)CC3)C(=O)[C@H](CC(C)(C)C)N2C1=O` [ID-102, (3R,6S,9aS)-8-(1-cyclopropylpiperidin-4-yl)-1-((E)-3-(4-(5-hydroxypent-1-yn-1-yl)thiazol-2-yl)acryloyl)-3-isobutyl-6-neopentyltetrahydropyrazino[2,1-c][1,2,4]oxadiazine-4,7(3H,6H)-dione] gave an inhibition at 0.15625 µM (PANC-1, MTS, 6 days) of 36.9%.

`CC(C)C[C@H]1CN(C(=O)/C=C/c2nc3ccccc3s2)[C@H]2CN([C@@H]3CCN(CCCCO)C3)C(=O)[C@H](CC(C)(C)C)N2C1=O` [ID-96, (3S,6S,9aR)-1-((E)-3-(benzo[d]thiazol-2-yl)acryloyl)-8-((R)-1-(4-hydroxybutyl)pyrrolidin-3-yl)-3-isobutyl-6-neopentylhexahydro-4H-pyrazino[1,2-a]pyrimidine-4,7(6H)-dione] showed an inhibition at 0.3125 µM (PANC-1, MTS, 6 days) of -1.7% and an inhibition at 10 µM (PANC-1, MTS, 6 days) of 101%.
